Measurements taken from PMC6199744, “Development of Chemical Proteomics for the Folateome and Analysis of the Kinetoplastid Folateome” (ACS Infectious Diseases, 2018).
Read-outs that look alike come from different tables or passages of the source.

Legend:
Type in all cases: binding
[1] = target: T1, HeLa cell extract proteins (Homo sapiens, UniProt Q96CN7)
T1 construct: endogenous in cells; host or cells: HeLa cell extract
T1 sequence (Q96CN7 1-298): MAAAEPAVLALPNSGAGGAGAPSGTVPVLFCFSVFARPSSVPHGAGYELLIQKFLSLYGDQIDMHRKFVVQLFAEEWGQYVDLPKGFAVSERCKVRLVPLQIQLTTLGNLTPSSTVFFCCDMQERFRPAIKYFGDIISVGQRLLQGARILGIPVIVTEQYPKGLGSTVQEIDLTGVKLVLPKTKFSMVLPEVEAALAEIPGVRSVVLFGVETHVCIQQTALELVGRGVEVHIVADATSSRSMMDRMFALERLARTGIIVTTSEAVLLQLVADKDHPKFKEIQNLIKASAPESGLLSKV

[2] = target: T2, HeLa cell extract proteins (Homo sapiens, UniProt P26447)
T2 construct: endogenous in cells; host or cells: HeLa cell extract

[3] = target: T3, HeLa cell extract proteins (Homo sapiens, UniProt O75947)
T3 construct: endogenous in cells; host or cells: HeLa cell extract

[4] = target: T4, HeLa cell extract proteins (Homo sapiens, UniProt O75521)
T4 construct: endogenous in cells; host or cells: HeLa cell extract
T4 sequence (O75521 39-394): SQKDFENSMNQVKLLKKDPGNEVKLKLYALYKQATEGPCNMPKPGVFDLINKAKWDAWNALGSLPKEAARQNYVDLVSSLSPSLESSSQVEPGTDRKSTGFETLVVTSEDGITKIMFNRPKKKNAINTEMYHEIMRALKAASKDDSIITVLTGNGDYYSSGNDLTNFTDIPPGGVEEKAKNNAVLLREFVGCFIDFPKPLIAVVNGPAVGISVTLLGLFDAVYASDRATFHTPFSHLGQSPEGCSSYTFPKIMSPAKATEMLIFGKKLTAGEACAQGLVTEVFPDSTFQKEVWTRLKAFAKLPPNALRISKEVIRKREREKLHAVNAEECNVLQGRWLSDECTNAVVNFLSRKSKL

[5] = target: T5, HeLa cell extract proteins (Homo sapiens, UniProt Q96AE4)
T5 construct: endogenous in cells; host or cells: HeLa cell extract
T5 sequence (Q96AE4 1-644): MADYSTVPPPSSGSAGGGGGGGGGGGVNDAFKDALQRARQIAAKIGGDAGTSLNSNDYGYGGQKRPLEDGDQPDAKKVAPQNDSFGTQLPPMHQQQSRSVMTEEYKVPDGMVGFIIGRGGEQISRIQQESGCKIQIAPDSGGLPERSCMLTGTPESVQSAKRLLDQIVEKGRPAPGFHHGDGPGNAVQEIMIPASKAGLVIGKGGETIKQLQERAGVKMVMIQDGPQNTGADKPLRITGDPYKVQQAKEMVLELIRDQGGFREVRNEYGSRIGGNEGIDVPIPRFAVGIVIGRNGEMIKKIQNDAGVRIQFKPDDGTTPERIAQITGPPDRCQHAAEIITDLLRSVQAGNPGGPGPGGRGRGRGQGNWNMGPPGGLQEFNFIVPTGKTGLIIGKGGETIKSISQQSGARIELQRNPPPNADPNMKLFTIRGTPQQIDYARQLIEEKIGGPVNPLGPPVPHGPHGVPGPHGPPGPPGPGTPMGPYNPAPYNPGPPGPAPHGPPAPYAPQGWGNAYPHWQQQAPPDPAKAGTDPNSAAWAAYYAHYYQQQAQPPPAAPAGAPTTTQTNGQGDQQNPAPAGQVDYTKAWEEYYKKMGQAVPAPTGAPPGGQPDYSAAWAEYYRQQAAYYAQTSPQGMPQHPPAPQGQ

[6] = target: T6, HeLa cell extract proteins (Homo sapiens, UniProt O43242)
T6 construct: endogenous in cells; host or cells: HeLa cell extract

[7] = target: T7, HeLa cell extract proteins (Homo sapiens, UniProt Q53G59)
T7 construct: endogenous in cells; host or cells: HeLa cell extract
T7 sequence (Q53G59 1-568): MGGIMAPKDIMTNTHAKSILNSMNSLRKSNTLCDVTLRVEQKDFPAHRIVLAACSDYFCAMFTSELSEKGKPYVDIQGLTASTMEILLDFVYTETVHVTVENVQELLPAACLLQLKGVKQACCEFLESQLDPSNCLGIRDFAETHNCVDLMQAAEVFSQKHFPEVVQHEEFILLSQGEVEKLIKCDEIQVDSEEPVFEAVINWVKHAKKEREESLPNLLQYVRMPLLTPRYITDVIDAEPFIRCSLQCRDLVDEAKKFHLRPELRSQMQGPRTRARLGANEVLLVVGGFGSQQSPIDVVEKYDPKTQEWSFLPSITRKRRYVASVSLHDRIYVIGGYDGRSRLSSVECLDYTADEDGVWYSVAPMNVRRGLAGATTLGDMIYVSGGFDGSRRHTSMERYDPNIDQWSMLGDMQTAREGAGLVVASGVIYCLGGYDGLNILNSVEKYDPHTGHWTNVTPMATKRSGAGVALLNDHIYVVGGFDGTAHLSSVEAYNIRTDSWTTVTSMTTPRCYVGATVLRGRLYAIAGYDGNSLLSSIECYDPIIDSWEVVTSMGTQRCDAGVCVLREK

[8] = HeLa, protein KLHL12 (KELCH-LIKE PROTEIN 12)

T2 sequence (P26447 whole entry): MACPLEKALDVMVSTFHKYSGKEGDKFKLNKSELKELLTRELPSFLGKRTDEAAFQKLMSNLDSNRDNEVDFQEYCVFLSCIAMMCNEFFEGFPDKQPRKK
T3 sequence (O75947 whole entry): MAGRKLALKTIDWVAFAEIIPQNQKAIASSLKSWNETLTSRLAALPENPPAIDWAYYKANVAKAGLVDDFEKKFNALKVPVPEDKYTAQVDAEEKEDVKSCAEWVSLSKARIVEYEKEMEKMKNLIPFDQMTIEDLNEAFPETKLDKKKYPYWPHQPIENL
T6 sequence (O43242 whole entry): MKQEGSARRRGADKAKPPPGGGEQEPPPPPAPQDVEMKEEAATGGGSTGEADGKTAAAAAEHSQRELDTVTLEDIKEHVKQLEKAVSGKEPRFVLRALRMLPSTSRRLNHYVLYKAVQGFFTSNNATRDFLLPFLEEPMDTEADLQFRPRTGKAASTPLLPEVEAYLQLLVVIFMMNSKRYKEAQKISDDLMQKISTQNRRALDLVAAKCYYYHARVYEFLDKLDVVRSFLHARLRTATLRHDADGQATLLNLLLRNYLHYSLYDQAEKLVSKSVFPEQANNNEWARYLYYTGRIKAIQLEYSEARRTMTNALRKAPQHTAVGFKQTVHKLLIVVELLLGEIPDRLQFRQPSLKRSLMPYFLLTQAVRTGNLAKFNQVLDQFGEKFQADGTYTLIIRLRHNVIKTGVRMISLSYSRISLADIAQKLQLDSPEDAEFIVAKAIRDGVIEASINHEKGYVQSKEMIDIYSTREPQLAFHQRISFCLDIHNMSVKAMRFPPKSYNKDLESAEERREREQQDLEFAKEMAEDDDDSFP

Row | Compound | fold changes relative to vehicle control ([1]; HeLa, captured protein ISOC1) | fold changes relative to vehicle control ([2]; protein S100A4, HeLa) | fold changes relative to vehicle control ([3]; HeLa, captured protein ATP5H) | fold changes relative to vehicle control ([4]; HeLa, captured protein PECI) | fold changes relative to vehicle control ([5]; HeLa, captured protein FUBP1) | fold changes relative to vehicle control ([6]; protein PSMD3, HeLa) | fold changes relative to vehicle control [7, 8] | fold changes relative to vehicle control [1] | fold changes relative to vehicle control [2] | fold changes relative to vehicle control [3] | fold changes relative to vehicle control [4] | fold changes relative to vehicle control [5] | fold changes relative to vehicle control [6] | fold changes relative to vehicle control [7] | fold changes relative to vehicle control ([1]; protein ISOC1, HeLa) | fold changes relative to vehicle control ([3]; protein ATP5H, HeLa) | fold changes relative to vehicle control ([4]; protein PECI, HeLa) | fold changes relative to vehicle control ([5]; protein FUBP1, HeLa) | fold changes relative to vehicle control ([7]; protein KLHL12, HeLa)
1 | Nc1nc2c(c(=O)[nH]1)N(C=O)C(CNc1ccc(C(=O)N[C@@H](CCC(=O)O)C(=O)O)cc1)CN2 (stereo partly shown) [LEU, leucovorin] | 1.09 | 0.95 | 0.91 | 1.06 | 1.09 | 1.08 | 1.36 | – | – | – | – | – | – | – | – | – | – | – | –
2 | Nc1nc2[nH]cc(CCc3ccc(C(=O)N[C@@H](CCC(=O)O)C(=O)O)cc3)c2c(=O)[nH]1 [PTX, pemetrexed] | – | – | – | – | – | – | – | 0.99 | 0.99 | 1.03 | 1.01 | 1.17 | 1.1 | 1.07 | – | – | – | – | –
3 | CCCCCCOc1ccc(Cc2cnc(N)nc2N)cc1 [compound 1] | – | 0.83 | – | – | – | 1.21 | – | – | – | – | – | – | – | – | 1.08 | 1.11 | 0.99 | 1.24 | 1.15
4 | CCCCCCOc1cccc(Cc2cnc(N)nc2N)c1 [compound 2] | – | 1.43 | – | – | – | 1.51 | – | – | – | – | – | – | – | – | 1.01 | 0.88 | 0.82 | 1.48 | 1.3
5 | Nc1nc2cccc(-c3ccccc3)c2n1Cc1ccc(Cl)c(Cl)c1 [compound 3] | – | 1.15 | – | – | – | 1.1 | – | – | – | – | – | – | – | – | 1.03 | 0.94 | 1.05 | 1 | 0.97
6 | NCCOCCOCC(=O)Nc1nc2ncc(CNc3ccc(C(=O)NC(CCC(=O)O)C(=O)O)cc3)nc2c(=O)[nH]1 (stereo not shown) [compound 6] | 1.11 | 1.18 | 0.92 | 0.96 | 1.28 | 1.17 | 1.05 | – | – | – | – | – | – | – | – | – | – | – | –
7 | NCCCNc1ccc(C(=O)NC(CCC(=O)O)C(=O)O)cc1 (stereo not shown) [compound 7] | 1.04 | 1.03 | 0.96 | 1.03 | 1 | 1.02 | 1.31 | – | – | – | – | – | – | – | – | – | – | – | –
